Assay results published in patent publication US20230144824A1, “1H-PYRAZOLO[4,3-d]PYRIMIDINE COMPOUNDS AS TOLL-LIKE RECEPTOR 7 (TLR7) AGONISTS” (BRISTOL-MYERS SQUIBB COMPANY, priority 2020, published 2023).

What was measured:
CD69 = experiment: Induction of CD69 in human whole blood; assay type: cell-based; settings: Homo sapiens, 17 h, 100% set to 1 uM of resiquimod, average where assay performed multiple times, read-out: hWB CD69 EC50
Summary of the method: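 Heparinized human whole blood treated with TLR7 agonist at final 1 uM and incubated 17 h at 37° C. CD69 surface staining alongside CD14 and CD19, then fix/lysis and flow cytometry on iQuePlus. Curves fitted with 1 uM resiquimod set as 100%.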

human TLR7 = biological target: T1, human TLR7 (Homo sapiens, UniProt Q9NYK1); experiment: Human TLR7 agonist activity assay (HEK-Blue TLR7 SEAP reporter); assay type: cell-based; settings: HEK-Blue TLR7 cells, 18 h treatment, average where assay performed multiple times, read-out: hTLR7 Agonism EC50
T1 construct: host or cells: HEK-Blue TLR7 cells (engineered human embryonic kidney cells)
T1 sequence (Q9NYK1 27-1049): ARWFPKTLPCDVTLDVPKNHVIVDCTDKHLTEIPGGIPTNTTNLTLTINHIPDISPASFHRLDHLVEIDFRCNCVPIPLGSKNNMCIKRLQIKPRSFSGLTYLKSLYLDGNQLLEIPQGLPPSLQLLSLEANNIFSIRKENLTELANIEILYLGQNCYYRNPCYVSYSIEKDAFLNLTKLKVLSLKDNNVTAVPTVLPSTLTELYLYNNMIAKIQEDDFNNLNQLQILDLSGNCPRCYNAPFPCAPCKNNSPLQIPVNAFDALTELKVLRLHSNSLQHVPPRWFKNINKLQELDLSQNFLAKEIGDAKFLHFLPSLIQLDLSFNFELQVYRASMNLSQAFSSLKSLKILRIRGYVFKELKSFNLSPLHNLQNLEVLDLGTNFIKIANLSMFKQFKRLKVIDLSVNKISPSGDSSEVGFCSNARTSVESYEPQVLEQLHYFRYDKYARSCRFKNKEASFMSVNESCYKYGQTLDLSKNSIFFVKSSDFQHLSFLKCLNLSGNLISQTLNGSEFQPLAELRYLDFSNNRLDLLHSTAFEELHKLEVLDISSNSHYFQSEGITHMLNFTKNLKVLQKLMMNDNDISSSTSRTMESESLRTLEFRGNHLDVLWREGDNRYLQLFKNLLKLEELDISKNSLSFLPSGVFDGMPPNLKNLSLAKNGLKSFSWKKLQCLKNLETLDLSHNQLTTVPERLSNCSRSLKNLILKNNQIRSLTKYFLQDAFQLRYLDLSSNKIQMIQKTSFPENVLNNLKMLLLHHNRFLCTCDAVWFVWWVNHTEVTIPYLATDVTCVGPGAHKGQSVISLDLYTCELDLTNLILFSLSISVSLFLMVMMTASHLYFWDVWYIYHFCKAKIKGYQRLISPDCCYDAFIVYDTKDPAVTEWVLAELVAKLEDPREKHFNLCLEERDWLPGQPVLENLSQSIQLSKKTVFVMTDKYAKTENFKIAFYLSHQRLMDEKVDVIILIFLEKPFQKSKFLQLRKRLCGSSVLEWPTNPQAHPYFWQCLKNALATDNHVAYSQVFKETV
Summary of the method: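 HEK-Blue TLR7 cells (15,000/well) treated with compound for 18 h at 37 °C, 5% CO2. Secreted SEAP measured with Quanti-Blue, 30 min, OD 620 nm. EC50 taken as concentration giving half-maximal response between baseline and maximum.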

SMILES | EC50 (CD69) [nM] | EC50 (human TLR7) [nM]
CCCCNc1nc(N)nc2cnn(Cc3cc(F)c(N4CCN(C(=O)CNCC(C)(C)O)CC4)cc3OC)c12 [Compound 196, 1-[4-(4-{[5-amino-7-(butylamino)-1H-pyrazolo[4,3-d]pyrimidin-1-yl]methyl}-2-fluoro-5-methoxyphenyl)piperazin-1-yl]-2-[(2-hydroxy-2-methylpropyl)amino]ethan-1-one] | 81 | 131
CCCCNc1nc(N)nc2cnn(Cc3cc(F)c(N4CCN(C(=O)CNCCS(C)(=O)=O)CC4)cc3OC)c12 [Compound 197, 1-[4-(4-{[5-amino-7-(butylamino)-1H-pyrazolo[4,3-d]pyrimidin-1-yl]methyl}-2-fluoro-5-methoxyphenyl)piperazin-1-yl]-2-[(2-methanesulfonylethyl)amino]ethan-1-one] | 1000 | 320
CCCCNc1nc(N)nc2cnn(Cc3cc(F)c(N4CCN(C(=O)CN5CCC[C@H]5CO)CC4)cc3OC)c12 [Compound 198, 1-[4-(4-{[5-amino-7-(butylamino)-1H-pyrazolo[4,3-d]pyrimidin-1-yl]methyl}-2-fluoro-5-methoxyphenyl)piperazin-1-yl]-2-[(2S)-2-(hydroxymethyl)pyrrolidin-1-yl]ethan-1-one] | 50.9 | 48.2
CCCCNc1nc(N)nc2cnn(Cc3cc(F)c(N4CCN(C(=O)CN5CC(O)C5)CC4)cc3OC)c12 [Compound 199, 1-[4-(4-{[5-amino-7-(butylamino)-1H-pyrazolo[4,3-d]pyrimidin-1-yl]methyl}-2-fluoro-5-methoxyphenyl)piperazin-1-yl]-2-(3-hydroxyazetidin-1-yl)ethan-1-one] | 1000 | 339
